Values quoted from earlier work in US6503506B1, “Nutrient therapy for immuno-compromised patients” (Millenium Biotechnologies, Inc., priority 2001, dated 2003).

Experiments:
mitochondrial DNA = settings: patients on long-term therapy

In the case of `COC1=C(OC)C(=O)C(C/C=C(\C)CC/C=C(\C)CC/C=C(\C)CC/C=C(\C)CC/C=C(\C)CC/C=C(\C)CC/C=C(\C)CC/C=C(\C)CC/C=C(\C)CCC=C(C)C)=C(C)C1=O` [COQ10, Coenzyme Q10], the “T4/T8 ratios of lymphocytes” value (HIV patients, oral administration) is given as “positive increase in T4/T8 rations” and the “IgG and T4-lymphocytes” value (human studies, administered orally) is given as “increases IgG and T4-lymphocytes”.
For `Cc1cn([C@H]2C[C@H](N=[N+]=[N-])[C@@H](CO)O2)c(=O)[nH]c1=O` [zidovudine (AZT), zidovudine], the “levels of mitochondrial DNA in muscle” value (mitochondrial DNA) is listed as “depletes levels of mitochondrial DNA in muscle”.
In the case of superoxide dismutase [SOD], the “levels of the virus core protein” value (HIV; indicator of virus presence in the cells) is given as “reduced the levels of the virus core protein” and the “spread of HIV through infected cells” value (HIV; infected white blood cells from patients with HIV) is given as “slowed down the spread of HIV through the infected cells”.
